The assay deals with T1, GAL4-PPARδ chimera (Homo sapiens, UniProt Q03181).
T1 construct: expressed in transfected cells
T1 sequence (Q03181 with tags, fused parts or gaps limits assumed): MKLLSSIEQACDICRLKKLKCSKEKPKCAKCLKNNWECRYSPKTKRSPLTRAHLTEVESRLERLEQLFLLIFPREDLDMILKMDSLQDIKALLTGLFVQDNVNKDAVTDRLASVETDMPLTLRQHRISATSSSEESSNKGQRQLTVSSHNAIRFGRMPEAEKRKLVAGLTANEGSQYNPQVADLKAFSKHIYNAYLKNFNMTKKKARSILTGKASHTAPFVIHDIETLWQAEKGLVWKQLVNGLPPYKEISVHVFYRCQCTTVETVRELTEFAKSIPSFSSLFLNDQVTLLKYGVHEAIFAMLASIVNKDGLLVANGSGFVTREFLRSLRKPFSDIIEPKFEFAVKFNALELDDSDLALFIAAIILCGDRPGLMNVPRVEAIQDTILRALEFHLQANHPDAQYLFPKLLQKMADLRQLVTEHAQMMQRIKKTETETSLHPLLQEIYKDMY
In words: Cellular transactivation assay (luciferase reporter). It counts as cell-based. The settings on record: CHO cells stably expressing GAL4-PPARδ chimera and luciferase reporter; 24 hours stimulation. From the text: Cellular Transactivation Assay:
A cellular assay is used to identify activators of the peroxisome proliferator-activated receptor delta (PPAR-delta).
Since mammalian cells contain different endogenous nuclear receptors which may complicate an unambiguous interpretation of the results, an established chimera system is used in which the ligand binding domain of the human PPARδ receptor is fused to the DNA binding domain of the yeast transcription factor GAL4. The resulting GAL4-PPARδ chimera is co-transfected and stably expressed in CHO cells having a reporter construct.
The reporter construct, which contains five copies of the GAL4 binding site upstream of a thymidine kinase promoter, expresses firefly luciferase (Photinus pyralis) following activation and binding of GAL4-PPARδ.
Transactivation Assay (Luciferase Reporter):
CHO (chinese hamster ovary) cells are sown in CHO-A-SFM medium (GIBCO), supplemented by 2.5% foetal calf serum, 1% penicillin/streptomycin (GIBCO), at a cell density of 2×10^3 cells per well in a 384 well plate (Greiner). The cells are cultivated at 37° C. for 48 h and then stimulated. To this end, the substances to be tested are taken up in the abovementioned medium and added to the cells. After a stimulation period of 24 hours, the luciferase activity is measured using a video camera. The relative light units measured give, as a function of the substance concentration, a sigmoidal stimulation curve.
(In a reporter assay the amount or activity of a reporter protein is the signal.)
For `Cc1cc(CN(CC(=O)Nc2ccc(Cl)cc2Cl)C2CCCCC2)ccc1OC(C)(C)C(=O)O` [Example 1, 2-[4-[[[2-[(2,4-Dichlorophenyl)amino]-2-oxoethyl]cyclohexylamino]methyl]-2-methylphenoxy]-2-methylpropanoic Acid], the EC50 (in general, the concentration needed to bring the measured effect to its halfway point) was 1 to 100 nM.
As for `Cc1cc(CN(CC(=O)Nc2ccc(Cl)cc2Cl)C2CCCCC2)ccc1OCC(=O)O` [Example 2, 2-[4-[[[2-[(2,4-Dichlorophenyl)amino]-2-oxoethyl]cyclohexylamino]methyl]-2-methylphenoxy]acetic Acid], the figure is 1 to 100 nM; as for `Cc1cc(CN(CC(=O)Nc2ccc(Cl)cc2Cl)C2C(C)CCC2C)ccc1OC(C)(C)C(=O)O` (stereo not shown) [Example 3, 2-[4-[[[2-[(2,4-Dichlorophenyl)amino]-2-oxoethyl]-(2,5-dimethylcyclopentyl)amino]methyl]-2-methylphenoxy]-2-methylpropanoic Acid], 1 to 100 nM; as for `Cc1cc(CN(CCNc2ccc(Cl)cc2Cl)C2CCCCC2)ccc1OC(C)(C)C(=O)O` [Example 4, 2-{4-[(Cyclohexyl{2-[(2,4-dichlorophenyl)amino]ethyl}amino)methyl]-2-methylphenoxy}-2-methylpropanoic Acid], 1 to 100 nM.
Compound `Cc1ccc(NC(=O)CN(Cc2ccc(OC(C)C(=O)O)c(C)c2)C2CCCCC2)c(C)c1` (stereo not shown) [Example 6, 2-[4-[[[2-[(2,4-Dimethylphenyl)amino]-2-oxoethyl]cyclohexylamino]methyl]-2-methylphenoxy]propanoic Acid] displayed a 50% effective concentration (EC50) of 1 to 100 nM.
`Cc1cc(CN(CC(=O)Nc2ccc(Cl)cc2Cl)C2CCCC2)ccc1OC(C)C(=O)O` (stereo not shown) [Example 8] showed an EC50 of 1 to 100 nM.
The compound `CC(C)(Oc1ccc(CN(CC(=O)Nc2ccc(Cl)cc2Cl)C2CCCC2)cc1)C(=O)O` [Example 9] returned an EC50 of 1 to 100 nM.
